Literature values, collected in patent US12377108B2 (Curantis UG, priority 2018, dated 2025).

Key:
[1] = of the activity of Δ9-THC
[2] = oral administration; first pass hepatic metabolism

SMILES	activity relative to Δ9-THC [1] [%]	oral bioavailability [2] [%]
CCCCCc1cc(O)c2c(c1)OC(C)(C)c1ccc(C)cc1-2 [CBN, Cannabinol]	10	
C=C(C)[C@@H]1CCC(C)=C[C@H]1c1c(O)cc(CCCCC)cc1O [CBD, Cannabidiol]		< 5
